Drawing on ChEMBL document CHEMBL3751701, “Class I and Class II Lanthipeptides Produced by Bacillus spp” (2015), this text covers MIC for three compounds.

What all share (assay type): functional
In assay [1] the test system is Bacillus cereus. Description: Antibacterial activity against Bacillus cereus RFB125 after 24 hrs by microdilution method. The note with it: RFB125, 24 h. On the technique in general: Dilution methods test growth across graded concentrations, often in twofold steps.
Assay [2] concerns Priestia megaterium. Description: Antibacterial activity against Bacillus megaterium RFB124 after 24 hrs by microdilution method. The note with it: RFB124, 24 h.
Assay [3] concerns Bacillus spizizenii. Briefly: Antibacterial activity against Bacillus subtilis ATCC 6633 after 24 hrs by microdilution method. The note with it: ATCC 6633, 24 h.
Assay [4] concerns Enterococcus faecalis. Briefly: Antibacterial activity against Enterococcus faecalis ATCC 29212 after 24 hrs by microdilution method. The note with it: ATCC 29212, 24 h.
Assay [5] has as its system Enterococcus faecium. Description: Antibacterial activity against Enterococcus faecium RFB128 after 24 hrs by microdilution method. To be noted: RFB128, 24 h.
Assay [6] relates to Listeria innocua. Briefly: Antibacterial activity against Listeria innocua ATCC 33090 after 24 hrs by microdilution method. The note with it: ATCC 33090, 24 h.
For assay [7], the system named is Listeria monocytogenes. Description: Antibacterial activity against Listeria monocytogenes LMG 21263 after 24 hrs by microdilution method. The note with it: LMG 21263, 24 h.
In assay [8] the test system is Listeria monocytogenes. Description: Antibacterial activity against Listeria monocytogenes LMG 23905 after 24 hrs by microdilution method. The note with it: LMG 23905, 24 h.
The test system of assay [9] is Kocuria rhizophila. Description: Antibacterial activity against Micrococcus luteus ATCC 9341 after 24 hrs by microdilution method.
The test system of assay [10] is Staphylococcus aureus. Briefly: Antibacterial activity against Staphylococcus aureus ATCC 25923 after 24 hrs by microdilution method. The note with it: ATCC 25923, 24 h.
Assay [11] deals with Staphylococcus aureus. Briefly: Antibacterial activity against methicillin-resistant Staphylococcus aureus ATCC 43300 after 24 hrs by microdilution method. To be noted: ATCC 43300, 24 h.
For assay [12], the system named is Staphylococcus aureus. Description: Antibacterial activity against Staphylococcus aureus RFB127 after 24 hrs by microdilution method. The note with it: RFB127, 24 h.
Assay [13] deals with Staphylococcus epidermidis. Briefly: Antibacterial activity against Staphylococcus epidermidis ATCC 1228 after 24 hrs by microdilution method. To be noted: ATCC 1228, 24 h.
Assay [14] has as its system Streptococcus agalactiae. Briefly: Antibacterial activity against Streptococcus agalactiae RFB141 after 24 hrs by microdilution method. The note with it: RFB141, 24 h.
Assay [15] deals with Lactococcus lactis. Description: Antibacterial activity against Lactococcus lactis MG1614 by agar diffusion assay. (In agar diffusion tests the substance spreads into inoculated agar from a disc or well.)
For assay [16], the system named is Micrococcus luteus. Description: Antibacterial activity against Micrococcus luteus […] 8166 by agar diffusion assay.
For assay [17], the system named is Enterococcus faecalis. Description: Antibacterial activity against Enterococcus faecalis ATCC 29212 by microdilution method.
For assay [18], the system named is Enterococcus faecalis. Description: Antibacterial activity against Enterococcus faecalis ATCC 51299 by microdilution method.
For assay [19], the system named is Kocuria rhizophila. Briefly: Antibacterial activity against Micrococcus luteus ATCC 9341 by microdilution method.
In assay [20] the test system is Staphylococcus aureus. Description: Antibacterial activity against Staphylococcus aureus ATCC 29213 by microdilution method.
Assay [21] relates to Staphylococcus aureus. Description: Antibacterial activity against methicillin-resistant Staphylococcus aureus ATCC 43300 by microdilution method.

Values after ≈ are worked out from the molar mass of the structure shown.

`C/C=C(\NC(=O)[C@H](Cc1cnc[nH]1)NC(=O)/C(=C/C)NC(=O)[C@@H]1CCCN1C(=O)[C@@H]1CSC[C@@H]2NC(=O)[C@H](CC(C)C)NC(=O)[C@@H](NC(=O)[C@H]3CSC[C@@H](NC(=O)[C@@H](NC(=O)CNC(=O)[C@H](CCCNC(=N)N)NC(=O)[C@H](CCC(N)=O)NC(=O)[C@H](CCC(=O)O)NC(=O)[C@H](C)N)[C@H](C)CC)C(=O)N[C@@H](CCC(N)=O)C(=O)NCC(=O)N[C@H](CC(N)=O)C(=O)N[C@H](CC(=O)O)C(=O)NCC(=O)N[C@H](CCCCN)C(=O)N[C@@H](CC(C)C)C(=O)N3)CSC[C@@H](NC(=O)[C@H](CCC(=O)O)NC(=O)[C@H](Cc3c[nH]c4ccccc34)NC2=O)C(=O)NCC(=O)N[C@@H](CC(C)C)C(=O)N1)C(=O)N[C@@H](CS)C(=O)N[C@H](Cc1c[nH]c2ccccc12)C(=O)N[C@H](CS)C(=O)O`: the minimal inhibitory concentration (MIC) (in general, the lowest concentration found to suppress growth) in [1] is 0.2 µM (≈ 0.659 µg/mL); in assay [2], 0.4 µM (≈ 1.32 µg/mL); in [3], 1.4 µM (≈ 4.61 µg/mL); in assay [4] it was 1.4 µM (≈ 4.61 µg/mL); in [5], 0.1 µM (≈ 0.329 µg/mL); in assay [6], 0.7 µM (≈ 2.31 µg/mL). The MIC in assay [7] was determined as 0.5 µM (≈ 1.65 µg/mL); in [8] it was 0.4 µM (≈ 1.32 µg/mL); in [9] it was 0.7 µM (≈ 2.31 µg/mL); in assay [10], 2.8 µM (≈ 9.22 µg/mL); in [11], 0.4 µM (≈ 1.32 µg/mL); in [12], 1.4 µM (≈ 4.61 µg/mL). In addition, the minimal inhibitory concentration (MIC) in assay [13] and in [14] was 2.8 µM (≈ 9.22 µg/mL) each time.

Take `C=C(NC(=O)[C@H](NC(=O)[C@@H](CCCCN)NC(=O)[C@@H]1CSC(C)C2NC(=O)[C@@H](CC(C)C)NC(=O)C(NC(=O)[C@H](CCC(N)=O)NC(=O)[C@H](CC(C)C)NC(=O)[C@H](Cc3ccccc3)NC(=O)[C@@H]3CSC(C)C(NC(=O)[C@H](NC(=O)[C@@H]4CSC(C)C(NC(=O)[C@H]5CSC[C@H](NC(=O)[C@H](CCCCN)NC(=O)[C@@H](N)Cc6c[nH]c7ccccc67)C(=O)N[C@@H](CCC(=O)O)C(=O)NC(=C)C(=O)N[C@@H](CC(C)C)C(=O)N5)C(=O)N5CCC[C@@H]5C(=O)NCC(=O)N4)C(C)C)C(=O)NCC(=O)N[C@@H](C)C(=O)N[C@@H](CC(C)C)C(=O)N[C@@H](CCC(N)=O)C(=O)N/C(=C\C)C(=O)N3)C(C)SC[C@@H](NC2=O)C(=O)N[C@H](CC(N)=O)C(=O)N1)[C@H](C)CC)C(=O)N[C@@H](CCCCN)C(=O)O` (stereo partly specified): the minimal inhibitory concentration (MIC) in [15] was 0.301 µM (≈ 1 µg/mL); in assay [16], 0.0151 µM (≈ 0.0501 µg/mL).

`C=C(NC(=O)[C@H](NC(=O)[C@@H](CCCCN)NC(=O)[C@@H]1CSC(C)C2NC(=O)[C@@H]([C@H](C)CC)NC(=O)C(NC(=O)[C@@H](CCC(N)=O)NC(=O)[C@@H](CC(C)C)NC(=O)[C@@H](Cc3ccccc3)NC(=O)[C@@H]3CSC(C)C(NC(=O)[C@H](NC(=O)[C@@H]4CSC(C)C(NC(=O)[C@H]5CSC[C@@H](NC(=O)[C@@H](CCCCN)NC(=O)[C@H](N)Cc6c[nH]c7ccccc67)C(=O)N[C@H](CCC(=O)O)C(=O)NC(=C)C(=O)N[C@H](C(C)C)C(=O)N5)C(=O)N5CCC[C@@H]5C(=O)NCC(=O)N4)C(C)C)C(=O)NCC(=O)N[C@@H](CC(C)C)C(=O)N[C@@H](CC(C)C)C(=O)N[C@H](CCC(N)=O)C(=O)N/C(=C\C)C(=O)N3)C(C)SC[C@@H](NC2=O)C(=O)N[C@H](CC(N)=O)C(=O)N1)[C@H](C)CC)C(=O)N[C@@H](CCCCN)C(=O)O` (stereo partly specified): the MIC in assay [17] amounted to 4.84 µM (≈ 16.2 µg/mL); in assay [18] it was 2.32 µM (≈ 7.77 µg/mL); in [19], 1.16 µM (≈ 3.89 µg/mL); in [20], 1.16 µM (≈ 3.89 µg/mL); in assay [21], 2.32 µM (≈ 7.77 µg/mL).
